Data taken from patent publication US20090298150A1, “PRODUCTION OF SQUALENE USING YEAST” (priority 2008, published 2009).

Experiments:
[1] = tested on: Yarrowia lipolytica ATCC 90904; assay: Cultivation of Yarrowia lipolytica in CYM001 media with supplements; squalene and lipid production; format: cell-based; conditions: 30° C., 300 rpm, 120 h
Method: Environmental manipulations are tested to increase the net yield of squalene. These include (a) inhibiting ACCase expression and/or activity with oleic acid, olive or other vegetable oil(s), inositol, choline, soraphen, fluazifop, and clethodim or other ACCase inhibiting herbicides, (b) inhibiting squalene epoxidase expression and/or activity with terbinafine, tolnaftate, and ergosterol or other squalene epoxidase inhibiting fungicides, (c) manipulating the C/N ratio in glycerol-based media (in the starting media or by add-ins), (d) varying the nitrogen source in the media (organic vs. inorganic vs. simple/complex), (e) varying carbon addition regimes (e.g. batch vs. feeding), (f) examining the effect of depleting nutrients other than carbon source, (g) varying the carbon source to include mixtures of sugars, sugar alcohols, alcohols, polyalcohols, and organic acids, (h) selecting for growth on HMGR-inhibitory compounds such as lovastatin or other statin-type inhibitors, and (i) selecting for high oil production in culture using lipophillic dyes or stains and/or by analyzing for extractable lipids using, for example, gravimetric or gas chromatographic methods.
For example, Yarrowia lipolytica ATCC 90904 was cultivated in high Carbon/Nitrogen ratio media (C/N=420, Li, Y-H., Liu, B., Zhao, Z-B., and Bai, F-W. 2006 “Optimized Culture Medium and Fermentation Conditions for Lipid Production by Rhodosporidium toruloides” Chinese Journal of Biotechnology 22(4): 650-656) (hereinafter “CYM001 Media”) supplemented with 0 to 50 μg/ml terbinafine at 30° C., 300 rpm for 120 h. […]
In a further example, Yarrowia lipolytica ATCC 90904 was cultivated in CYM001 media supplemented with 0 to 200 μM clethodim at 30° C., 300 rpm for 120 h.

Cryptococcus curvatus = Cryptococcus curvatus growth on carbon sources (cell mass in culture); conditions: 12% w/v glycerol; Yeast Extract-based rich media; after 5 days
Method: Cryptococcus curvatus growth was evaluated to determine the best carbon sources to maximize its cell mass in culture. In a Yeast Extract-based rich media (10 g/L yeast extract, 20 g/L peptone), C. curvatus grew well in 2-20% w/v glucose, achieving a maximal level of 55 g/L cell dry weight (CDW) at 16% w/v glucose and above after 4 days. Similarly, C. curvatus grew in the same media with 3-12% w/v glycerol, achieving a CDW of 40 g/L in 12% w/v glycerol after 5 days. C. curvatus was also grown in Biodiesel glycerol (Imperial Western Products, Coachella, Calif.) up to 3.5% w/v, resulting in 23 g/L CDW.

CCCCCCCC/C=C\CCCCCCCC(=O)O [Oleic acid]
lipid accumulation, % lipid/CDW (cell dry weight) ([1]; 10 μl/ml Oleic acid, CYM001 media): 63.3 % lipid/CDW

OCC(O)CO [glycerol]
cell dry weight (CDW) (Cryptococcus curvatus): 40 g/L

CN(C/C=C/C#CC(C)(C)C)Cc1cccc2ccccc12 [terbinafine]
squalene as % of total lipid ([1]; 12.5 μg/ml or higher terbinafine, CYM001 Media): up to 18.5%

CCSC(C)CC1CC(=O)C(/C(CC)=N/OC/C=C/Cl)=C(O)C1 (stereo not shown) [clethodim]
increase in the yield (mg) of squalene per 60-ml flask ([1]; 200 μM clethodim, CYM001 media): 60 fold
